Source: US12227479B2, “Dihydropyridines for the treatment of cognitive impairment or traumatic brain injury” (Icahn School of Medicine at Mount Sinai, priority 2017, dated 2025)
Several values for one entry are separate records, joined by “and”; a condition that tells them apart may be missing. Identical values can stand only once. Entries after “also recorded” stand apart in the source; their conditions may differ. Like-named read-outs stand apart in the source and are kept apart here.

How the values were obtained:
synj1 [1] = assay: Western blot of synj1 protein levels in wt cortical neurons; format: cell-based
Method: Results were determined by measuring the synj1 protein levels as a percentage of the control (±SEM). One-way ANOVA was performed followed by post-hoc multiple comparison tests to determine the significance of differences between drug-treated vs DMSO control. **p<0.01; N=4-17/condition. […] DMSO-treated conditions were used as controls and results were presented as percentage of the control (±SEM). […] FIGS. 3A, B and C). […] FIGS. 3A, B and C). […] D) In vitro calcium channel inhibition assays. Results were presented as percentage of inhibition (±SEM). […] One-way ANOVA was performed followed by post-hoc multiple comparison tests to determine the significance of differences between drug-treated vs DMSO control. *p<0.05, **p<0.01, ***p<0.001; N=3/condition except in A) nimodipine-treated conditions with N=20.

[2] = Brain and blood exposure after PO administration to male CD-1 mice; format: in vivo, mouse; settings: for concentration at 1 h / concentration at 3 h / Kp at 1 h / Kp at 3 h: mouse, PO 30 mg/kg, male CD-1 mice; for Kp at 1 h / Kp at 3 h: brain/blood, read-out: Brain/Blood ratio
synj1 [3] = assay: Long-term daily IP treatment of AD transgenic mice: cortical brain synj1 levels; format: in vivo; settings: APP/PS1 transgenic mouse, 2.5 mg/kg/day IP for 6 months, compared to Tg vehicle controls
Method: (§1) Data is presented as % of wt control (vehicle-treated) time spent exploring novel objects. N=13-15/group. C) Cortical brain synj1 levels as well as D) PIP2 levels in Tg mice (vehicle-, nimodipine- or Example 9-treated) were compared to vehicle-treated controls (as 100%) in wildtype (wt) mice. N=7-13/group. One-way ANOVA was performed followed by post-hoc multiple comparison tests to determine the significance of differences between pairs of means. *p<0.05, **p<0.01, ***p<0.001, ****p<0.0001.

Aβ40 [4] = assay: Long-term daily IP treatment of AD transgenic mice: brain Aβ40 levels; format: in vivo, mouse; settings: 2.5 mg/kg/day IP for 6 months
Method: (§2) N=5-7/group. […] One-way ANOVA was performed followed by post-hoc multiple comparison tests to determine the significance of differences between drug-treated vs DMSO control. *p<0.05, **p<0.01.

Aβ40 [5] = assay: ELISA of Aβ40 levels in wt cortical neuronal culture; format: cell-based; settings: wt cortical neurons
Method: (§3) DMSO-treated conditions were used as controls and results were presented as percentage of the control (±SEM). […] FIGS. 3A, B and C). […] FIGS. 3A, B and C). […] D) In vitro calcium channel inhibition assays. Results were presented as percentage of inhibition (±SEM). […] One-way ANOVA was performed followed by post-hoc multiple comparison tests to determine the significance of differences between drug-treated vs DMSO control. *p<0.05, **p<0.01, ***p<0.001; N=3/condition except in A) nimodipine-treated conditions with N=20.

synj1 5′-promoter region = assay: synj1 5′-promoter luciferase assay (GLuc/SEAP dual reporter) in ApoE4 cortical neurons; format: cell-based; settings: for inhibition of synj1 transcription activities: luciferase assay; for IC50: Cortical neurone, ApoE4 cortical neurons, 48 hours treatment, read-out: IC50 (synj1 transcriptional activity, luciferase assay)
Method: The in vitro luciferase assay uses a dual reporter system of Gaussia luciferase (GLuc) and secreted alkaline phosphatase (SEAP) tagged synj1 5′-promoter region. […] (FIG. 2). DMSO-treated conditions were used as controls and results were presented as percentage of the control (±SEM). One-way ANOVA was performed followed by post-hoc multiple comparison tests to determine the significance of differences between drug-treated vs DMSO control. *p<0.05; N=5-17/condition.

in vivo = settings: male, CD-1, mouse
Aβ42 [6] = assay: ELISA of Aβ42 levels in wt cortical neuronal culture; format: cell-based; settings: 10 μM, wt cortical neurons
Method: as §3

wt cortical neurons = assay: Observed toxicity in wt cortical neuron cultures; format: cell-based; settings: 10 μM
APP/PS1 transgenic mouse = assay: Long-term daily IP treatment of AD transgenic mice: NOR and Y maze behavior tests; format: in vivo; settings: 2.5 mg/kg/day IP for 6 months, vs vehicle Tg mice
Method: as §1

ApoE4 mice = assay: Long-term daily oral treatment of ApoE KI mice: NOR test; format: in vivo, mouse; settings: 3 mg/kg/day oral for 6 months, vs vehicle-treated ApoE4 mice
Method: FIG. 7 Long-term in vivo treatment of Example 9 via daily oral administration at 3 mg/kg/day in ApoE KI mice. […] Data is presented as a percentage of ApoE3 control (vehicle-treated) time spent exploring novel objects. N=12-13/group. Cortical brain B) synj1 levels as well as C) pTau levels in ApoE4 mice (vehicle- or Example 9-treated) were compared to vehicle-treated controls (as 100%) in ApoE3 mice. N=6-9/group. One-way ANOVA was performed followed by post-hoc multiple comparison tests to determine the significance of differences between pairs of means. *p<0.05, **p<0.01.

[7] = Blood pharmacokinetics after IV or PO administration to male CD-1 mice
Aβ42 [8] = assay: Long-term daily oral treatment of ApoE KI mice: brain Aβ42 levels; format: in vivo, mouse; settings: 3 mg/kg/day oral
Method: (§4) FIG. 8 Long-term in vivo treatment of Example 9 via daily oral administration at 3 mg/kg/day in ApoE KI mice. […] N=5-8/group. Vehicle-treated conditions were used as controls and results were presented as percentage of the control (±SEM). One-way ANOVA was performed followed by post-hoc multiple comparison tests to determine the significance of differences between drug-treated vs DMSO control. *p<0.05, ***p<0.001.

Aβ40 [9] = assay: Long-term daily oral treatment of ApoE KI mice: brain Aβ40 levels; format: in vivo, mouse; settings: 3 mg/kg/day oral
Method: as §4

Aβ42 [10] = assay: Long-term daily IP treatment of AD transgenic mice: brain Aβ42 levels; format: in vivo, mouse; settings: 2.5 mg/kg/day IP for 6 months
Method: as §2

[11] = tested on: Ca2+- L type calcium channel (dihydropyridine site); assay: Calcium channel activity, Cerep radioligand displacement (dihydropyridine site, antagonist); format: binding
Method: as §3, with “[table] […] DMSO-treated” for “DMSO-treated”

[12] = APP/PS1 transgenic mouse neocortex, vs Tg vehicle
[13] = male, CD-1, mouse, blood, iv, 1 mg/kg
[14] = male, CD-1, mouse, blood, po, 30 mg/kg

## COCCOC(=O)C1=C(C)NC(C)=C(C(=O)OC(C)C)C1c1cccc([N+](=O)[O-])c1 (racemic) [nimodipine]
synj1 [1]; 10 μM
  reduction of synj1 protein levels: 26.6%
[2]; blood, read-out: Blood conc.
  concentration at 1 h: 70 ng/mL
  concentration at 3 h: 62 ng/mL
[2]
  Kp at 1 h: 1.9
  Kp at 3 h: 1
[2]; brain, read-out: Brain conc.
  concentration at 1 h: 136 ng/mL
  concentration at 3 h: 62 ng/mL
synj1 [3]
  reduction of synj1 protein levels in brain neocortical regions: 75.8%
Aβ40 [4]; [12]
  decrease in soluble Aβ40 levels: 24.7%
Aβ40 [5]; 10 μM
  reduction of Aβ40 levels: 47.0%
Aβ40 [5]; 10 μM, listed as Nimodipine
  reduction of Aβ40 levels: synj1 protein levels, a 47% reduction of Aβ40 levels and a
synj1 5′-promoter region; 10 μM
  inhibition of synj1 transcription activities: Nimodipine at 10 μM achieved a 43.0% inhibition of synj1
synj1 5′-promoter region
  IC50: 3.99 µM
In vivo
  bioavailability: 7%
In vivo; iv, 1 mg/kg
  AUC: 187 ng·h/mL
  Cmax: 341 ng/mL
  Vd: 3.29 L/kg
  clearance: 88.8 mL/min/kg
  half-life: 34.8 min
In vivo; po, 30 mg/kg
  AUC: 384 ng·h/mL
  Cmax: 114 ng/mL
  half-life: 436 min
Aβ42 [6]
  reduction of Aβ42 levels: 12.1%
Aβ42 [6]; listed as Nimodipine
  reduction of Aβ42 levels: 12.1% reduction of Aβ42 levels. Example 9 at 5 μM exhibited a

## COCCOC(=O)C1=C(C)NC(C)=C(C(=O)OC(C)C)C1c1ccc(C(F)(F)F)cc1 (centres unmarked) [Example 6, 3-isopropyl 5-(2-methoxyethyl) 2,6-dimethyl-4-(4-(trifluoromethyl)phenyl)-1,4-dihydropyridine-3,5-dicarboxylate]
Wt cortical neurons
  toxicity in cortical neuron culture: observed toxicities
synj1 5′-promoter region
  IC50: 1.89 µM

## COCCOC(=O)C1=C(C)NC(C)=C(C(=O)OC(C)C)C1c1ccc(OC(F)(F)F)cc1 (centres unmarked) [Example 7]
Wt cortical neurons
  toxicity in cortical neuron culture: observed toxicities

## COCCOC(=O)C1=C(C)NC(C)=C(C(=O)OC(C)C)C1c1ccc(C(C)(C)C)cc1 (centres unmarked) [Example 9, 3-isopropyl 5-(2-methoxyethyl) 4-(4-(tert-butyl)phenyl)-2,6-dimethyl-1,4-dihydropyridine-3,5-dicarboxylate]
APP/PS1 transgenic mouse
  cognitive function in NOR and Y-maze tests (in words): cognitive improvements
Wt cortical neurons
  toxicity in cortical neuron culture: observed toxicities
synj1 [1]; 5 μM
  reduction of synj1 protein levels: 62.4% and 62.3%
[2]; compared with nimodipine
  CNS penetrability (in words): better than nimodipine
[2]; blood, read-out: Blood conc.
  concentration at 1 h: 518 ng/mL
  concentration at 3 h: 607 ng/mL
[2]
  Kp at 1 h: 1.2
  Kp at 3 h: 0.7
[2]; brain, read-out: Brain conc.
  concentration at 1 h: 604 ng/mL
  concentration at 3 h: 421 ng/mL
ApoE4 mice
  cognitive function in NOR test (in words): cognitive improvements
[7]; compared with nimodipine
  oral bioavailability (in words): better than nimodipine
[7]; [13]
  AUC: 189 ng·h/mL
  Cmax: 228 ng/mL
  Vd: 8.2 L/kg
  clearance: 85 mL/min/kg
  half-life: 101 min
[7]; male, CD-1, mouse, blood, oral, 30 mg/kg
  bioavailability: 73%
[7]; [14]
  AUC: 4120 ng·h/mL
  Cmax: 1010 ng/mL
  half-life: 50.4 min
synj1 [3]
  reduction of synj1 protein levels in brain neocortical regions: 99.4%
Aβ42 [8]
  levels of insoluble Aβ42 in ApoE4 animal brains (in words): trend of reduction
  levels of soluble Aβ42 in ApoE4 animal brains (in words): reduction
Aβ40 [9]
  levels of soluble Aβ40 in ApoE4 animal brains (in words): reduction
Aβ42 [10]; AD transgenic mice
  levels of insoluble Aβ42 in Tg animal brains (in words): trend of reduction
  levels of soluble Aβ42 in Tg animal brains (in words): Reduction
Aβ42 [10]; [12]
  decrease in insoluble Aβ42 levels: 27.4%
  decrease in soluble Aβ42 levels: insoluble Aβ42 levels, a 19.3% decrease in soluble Aβ42 levels,
Aβ40 [4]; AD transgenic mice
  levels of insoluble Aβ40 in Tg animal brains (in words): Reduction
Aβ40 [4]; [12]
  decrease in insoluble Aβ40 levels: 23.7%
  decrease in soluble Aβ40 levels: 12%
Aβ40 [5]; 5 μM
  reduction of Aβ40 levels: 82.6%
synj1 5′-promoter region; 3 μM
  inhibition of synj1 transcription activities: 44.4% inhibition.
synj1 5′-promoter region
  IC50: 3.33 µM
[11]; 1 nM
  calcium channel inhibition: no calcium channel
[11]; 0.1 μM
  calcium channel inhibition: 81.3%
[11]; versus nimodipine
  calcium channel inhibition compared to nimodipine (in words): attenuated calcium channel blockade effects; also recorded: Example 9 has attenuated calcium channel inhibition versus
